{
  "source": "patent US8063048B2",
  "about": "“Acetylenyl-pyrazolo-pyrimidine derivatives” (Hoffmann-La Roche Inc., priority 2005, dated 2011)",
  "data": [
    {"smiles": "Nc1ccc(C#Cc2cnc3c(C(F)(F)F)cc(-c4ccc(C(F)(F)F)cc4)cn23)cn1", "note": "[Example 191, 5-[8-Trifluoromethyl-6-(4-trifluoromethyl-phenyl)-imidazo[1,2-a]pyridin-3-ylethynyl]-pyridin-2-ylamine]", "values": [
      {"measurement": "melting point", "result": "260 to 262", "unit": "°C"}
    ]},
    {"smiles": "Cc1cc(-c2cc(C(F)(F)F)n3ncc(C#Cc4ccc(N)nc4)c3n2)ccc1C(F)(F)F", "note": "[Example 289, 5-[5-(3-Methyl-4-trifluoromethyl-phenyl)-7-trifluoromethyl-pyrazolo[1,5-a]pyrimidin-3-ylethynyl]-pyridin-2-ylamine]", "values": [
      {"measurement": "melting point", "result": 201, "unit": "°C"}
    ]},
    {"smiles": "NC(=O)c1ccc(C#Cc2cnn3c(C(F)F)cc(-c4ccc(C(F)(F)F)cc4)nc23)cn1", "note": "[Example 206, 5-[7-Difluoromethyl-5-(4-trifluoromethyl-phenyl)-pyrazolo[1,5-a]pyrimidin-3-ylethynyl]-pyridine-2-carboxylic acid amide]", "values": [
      {"measurement": "melting point", "result": "276 to 277", "unit": "°C"}
    ]},
    {"smiles": "CC(C)(CO)NS(=O)(=O)c1cncc(C#Cc2cnn3ccc(-c4ccc(Cl)cc4)nc23)c1", "note": "[Example 74, 5-[5-(4-Chloro-phenyl)-pyrazolo[1,5-a]pyrimidin-3-ylethynyl]-pyridine-3-sulfonic acid (2-hydroxy-1,1-dimethyl-ethyl)-amide]", "values": [
      {"measurement": "melting point", "result": "185 to 186", "unit": "°C"}
    ]},
    {"smiles": "O=S(=O)(c1ccc(C#Cc2cnn3c(C(F)(F)F)cc(-c4cccc(C(F)(F)F)c4)nc23)s1)N1CCNCC1", "note": "[Example 261, 3-[5-(piperazine-1-sulfonyl)-thiophen-2-ylethynyl]-7-trifluoromethyl-5-(3-trifluoromethyl-phenyl)-pyrazolo[1,5-a]pyrimidine]", "values": [
      {"measurement": "melting point", "result": 160, "unit": "°C"}
    ]},
    {"smiles": "Cc1cc(-c2cc(C(F)(F)F)n3ncc(C#Cc4cccnc4)c3n2)ccc1Cl", "note": "[Example 101, 5-(4-Chloro-3-methyl-phenyl)-3-pyridin-3-ylethynyl-7-trifluoromethyl-pyrazolo[1,5-a]pyrimidine]", "values": [
      {"measurement": "melting point", "result": 196, "unit": "°C"}
    ]},
    {"smiles": "O=S(=O)(O)c1cncc(C#Cc2cnn3c(C(F)(F)F)cc(-c4ccc(C(F)(F)F)cc4)nc23)c1", "note": "[Example 37, 5-[7-Trifluoromethyl-5-(4-trifluoromethyl-phenyl)-pyrazolo[1,5-a]pyrimidin-3-ylethynyl]-pyridine-3-sulfonic acid]", "values": [
      {"measurement": "melting point", "result": "> 288", "unit": "°C"}
    ]},
    {"smiles": "NS(=O)(=O)c1ccc(C#Cc2cnn3c(C(F)F)cc(-c4ccc(C(F)(F)F)cc4)nc23)c(F)c1", "note": "[Example 48, 4-[7-Difluoromethyl-5-(4-trifluoromethyl-phenyl)-pyrazolo[1,5-a]pyrimidin-3-ylethynyl]-3-fluoro-benzenesulfonamide]", "values": [
      {"measurement": "melting point", "result": "230 to 232", "unit": "°C"}
    ]},
    {"smiles": "CC(O)c1ccc(C#Cc2cnn3c(C(F)(F)F)cc(-c4ccc(C(F)(F)F)cc4)nc23)cc1", "note": "(stereo not drawn) [Example 52, 1-{4-[7-Trifluoromethyl-5-(4-trifluoromethyl-phenyl)-pyrazolo[1,5-a]pyrimidin-3-ylethynyl]-phenyl}-ethanol]", "values": [
      {"measurement": "melting point", "result": "175 to 178", "unit": "°C"}
    ]},
    {"smiles": "NCCNS(=O)(=O)c1ccc(C#Cc2cnn3c(C(F)(F)F)cc(-c4ccc(C(F)(F)F)cc4)nc23)s1", "note": "[Example 263, 5-[7-Trifluoromethyl-5-(4-trifluoromethyl-phenyl)-pyrazolo[1,5-a]pyrimidin-3-ylethynyl]-thiophene-2-sulfonic acid (2-amino-ethyl)-amide]", "values": [
      {"measurement": "melting point", "result": 161, "unit": "°C"}
    ]},
    {"smiles": "COCCNS(=O)(=O)c1ccc(C#Cc2cnn3c(C(F)(F)F)cc(-c4ccc(C(F)(F)F)cc4)nc23)cc1", "note": "[Example 124, N-(2-Methoxy-ethyl)-4-[7-trifluoromethyl-5-(4-trifluoromethyl-phenyl)-pyrazolo[1,5-a]pyrimidin-3-ylethynyl]-benzenesulfonamide]", "values": [
      {"measurement": "melting point", "result": "185 to 187", "unit": "°C"}
    ]},
    {"smiles": "CC(=O)Nc1ccc(C#Cc2cnn3c(C(F)(F)F)cc(-c4ccc(C(F)(F)F)cc4)nc23)cc1", "note": "[Example 207, N-{4-[7-Trifluoromethyl-5-(4-trifluoromethyl-phenyl)-pyrazolo[1,5-a]pyrimidin-3-ylethynyl]-phenyl}-acetamide]", "values": [
      {"measurement": "melting point", "result": 238, "unit": "°C"}
    ]},
    {"smiles": "CC(C)(O)c1cc(-c2ccc(Cl)cc2)nc2c(C#Cc3ccc(S(N)(=O)=O)s3)cnn12", "note": "[Example 154, 5-[5-(4-Chloro-phenyl)-7-(1-hydroxy-1-methyl-ethyl)-pyrazolo[1,5-a]pyrimidin-3-ylethynyl]-thiophene-2-sulfonic acid amide]", "values": [
      {"measurement": "melting point", "result": "206 to 208", "unit": "°C"}
    ]},
    {"smiles": "CC(CO)(CO)NS(=O)(=O)c1cncc(C#Cc2cnn3c(C4CC4)cc(-c4ccc(Cl)cc4)nc23)c1", "note": "[Example 68, 5-[5-(4-Chloro-phenyl)-7-cyclopropyl-pyrazolo[1,5-a]pyrimidin-3-ylethynyl]-pyridine-3-sulfonic acid (2-hydroxy-1-hydroxymethyl-1-methyl-ethyl)-amide]", "values": [
      {"measurement": "melting point", "result": "204 to 206", "unit": "°C"}
    ]},
    {"smiles": "CN(C)CCNS(=O)(=O)c1cccc(C#Cc2cnn3c(C(F)(F)F)cc(-c4ccc(C(F)(F)F)cc4)nc23)c1", "note": "[Example 133, N-(2-Dimethylamino-ethyl)-3-[7-trifluoromethyl-5-(4-trifluoromethyl-phenyl)-pyrazolo[1,5-a]pyrimidin-3-ylethynyl]-benzenesulfonamide]", "values": [
      {"measurement": "melting point", "result": "146 to 147", "unit": "°C"}
    ]},
    {"smiles": "Cc1nc(C#Cc2cnn3c(C(F)(F)F)cc(-c4ccc(C(F)(F)F)cc4)nc23)sc1S(N)(=O)=O", "note": "[Example 54, 4-Methyl-2-[7-trifluoromethyl-5-(4-trifluoromethyl-phenyl)-pyrazolo[1,5-a]pyrimidin-3-ylethynyl]-thiazole-5-sulfonic acid amide]", "values": [
      {"measurement": "melting point", "result": "245 to 246", "unit": "°C"}
    ]},
    {"smiles": "N#CCCNS(=O)(=O)c1cccc(C#Cc2cnn3c(C(F)(F)F)cc(-c4ccc(C(F)(F)F)cc4)nc23)c1", "note": "[Example 47, N-(2-Cyano-ethyl)-3-[7-trifluoromethyl-5-(4-trifluoromethyl-phenyl)-pyrazolo[1,5-a]pyrimidin-3-ylethynyl]-benzenesulfonamide]", "values": [
      {"measurement": "melting point", "result": "174 to 182", "unit": "°C"}
    ]},
    {"smiles": "CCOc1cccc(-c2cc(C(F)F)n3ncc(C#Cc4cccc(S(N)(=O)=O)c4)c3n2)c1", "note": "[Example 201, 3-[7-Difluoromethyl-5-(3-ethoxy-phenyl)-pyrazolo[1,5-a]pyrimidin-3-ylethynyl]-benzenesulfonamide]", "values": [
      {"measurement": "melting point", "result": "167 to 168", "unit": "°C"}
    ]},
    {"smiles": "CC(C)(C)NS(=O)(=O)c1ccc(C#Cc2cnn3c(C(F)(F)F)cc(-c4cccc(C(F)(F)F)c4)nc23)s1", "note": "[Example 117, 5-[7-Trifluoromethyl-5-(3-trifluoromethyl-phenyl)-pyrazolo[1,5-a]pyrimidin-3-ylethynyl]-thiophene-2-sulfonic acid tert-butylamide]", "values": [
      {"measurement": "melting point", "result": 168, "unit": "°C"}
    ]},
    {"smiles": "Nc1ccc(C#Cc2cnn3ccc(-c4ccc(C(F)(F)F)cc4)nc23)cn1", "note": "[Example 310, 5-[5-(4-Trifluoromethyl-phenyl)-pyrazolo[1,5-a]pyrimidin-3-ylethynyl]-pyridin-2-ylamine]", "values": [
      {"measurement": "melting point", "result": "213 to 214", "unit": "°C"}
    ]},
    {"smiles": "CC(CO)(CO)NS(=O)(=O)c1cncc(C#Cc2cnn3c(C(F)(F)F)cc(-c4ccc(C(F)(F)F)cc4)nc23)c1", "note": "[Example 14, 5-[7-Trifluoromethyl-5-(4-trifluoromethyl-phenyl)-pyrazolo[1,5-a]pyrimidin-3-ylethynyl]-pyridine-3-sulfonic acid (2-hydroxy-1-hydroxymethyl-1-methyl-ethyl)-amide]", "values": [
      {"measurement": "melting point", "result": "228 to 231", "unit": "°C"}
    ]},
    {"smiles": "COCCNS(=O)(=O)c1cccc(C#Cc2cnn3c(C(F)F)cc(-c4ccc(C(F)(F)F)cc4)nc23)c1", "note": "[Example 146, 3-[7-Difluoromethyl-5-(4-trifluoromethyl-phenyl)-pyrazolo[1,5-a]pyrimidin-3-ylethynyl]-N-(2-methoxy-ethyl)-benzenesulfonamide]", "values": [
      {"measurement": "melting point", "result": "147 to 148", "unit": "°C"}
    ]},
    {"smiles": "Cc1cc(-c2ccc(C(F)(F)F)cc2)nc2c(C#Cc3cnc(N)nc3)cnn12", "note": "[Example 315, 5-[7-Methyl-5-(4-trifluoromethyl-phenyl)-pyrazolo[1,5-a]pyrimidin-3-ylethynyl]-pyrimidin-2-ylamine]", "values": [
      {"measurement": "melting point", "result": "246 to 248", "unit": "°C"}
    ]},
    {"smiles": "Cc1ccc(C#Cc2cnn3c(C(F)F)cc(-c4ccc(C(F)(F)F)cc4)nc23)cc1S(=O)(=O)NCCO", "note": "[Example 61, 5-[7-Difluoromethyl-5-(4-trifluoromethyl-phenyl)-pyrazolo[1,5-a]pyrimidin-3-ylethynyl]-N-(2-hydroxy-ethyl)-2-methyl-benzenesulfonamide]", "values": [
      {"measurement": "melting point", "result": "184 to 186", "unit": "°C"}
    ]},
    {"smiles": "CCOc1cc(-c2cc(C(F)(F)F)n3ncc(C#Cc4ncc(S(=O)(=O)NC(C)(C)CO)s4)c3n2)ccc1C(F)(F)F", "note": "[Example 51, 2-[5-(3-Ethoxy-4-trifluoromethyl-phenyl)-7-trifluoromethyl-pyrazolo[1,5-a]pyrimidin-3-ylethynyl]-thiazole-5-sulfonic acid (2-hydroxy-1,1-dimethyl-ethyl)-amide]", "values": [
      {"measurement": "melting point", "result": "209 to 211", "unit": "°C"}
    ]},
    {"smiles": "NS(=O)(=O)c1cc(C#Cc2cnn3c(C(F)(F)F)cc(-c4ccc(Cl)cc4)nc23)c(F)cc1F", "note": "[Example 96, 5-[5-(4-Chloro-phenyl)-7-trifluoromethyl-pyrazolo[1,5-a]pyrimidin-3-ylethynyl]-2,4-difluoro-benzenesulfonamide]", "values": [
      {"measurement": "melting point", "result": "292 to 293", "unit": "°C"}
    ]},
    {"smiles": "CN(C)CCNS(=O)(=O)c1ccc(C#Cc2cnn3c(C(F)F)cc(-c4ccc(C(F)(F)F)cc4)nc23)cc1", "note": "[Example 141, 4-[7-Difluoromethyl-5-(4-trifluoromethyl-phenyl)-pyrazolo[1,5-a]pyrimidin-3-ylethynyl]-N-(2-dimethylamino-ethyl)-benzenesulfonamide]", "values": [
      {"measurement": "melting point", "result": "157 to 159", "unit": "°C"}
    ]},
    {"smiles": "NS(=O)(=O)c1ccc(C#Cc2cnn3c(C(F)F)cc(-c4cccc(C(F)(F)F)c4)nc23)s1", "note": "[Example 160, 5-[7-Difluoromethyl-5-(3-trifluoromethyl-phenyl)-pyrazolo[1,5-a]pyrimidin-3-ylethynyl]-thiophene-2-sulfonic acid amide]", "values": [
      {"measurement": "melting point", "result": 225, "unit": "°C"}
    ]},
    {"smiles": "COc1ncc(S(=O)(=O)NC(C)(C)CO)cc1C#Cc1cnn2c(C(F)(F)F)cc(-c3ccc(C(F)(F)F)cc3)nc12", "note": "[Example 18, 6-Methoxy-5-[7-trifluoromethyl-5-(4-trifluoromethyl-phenyl)-pyrazolo[1,5-a]pyrimidin-3-ylethynyl]-pyridine-3-sulfonic acid (2-hydroxy-1,1-dimethyl-ethyl)-amide]", "values": [
      {"measurement": "melting point", "result": "209 to 210", "unit": "°C"}
    ]},
    {"smiles": "NC(=O)c1ccc(C#Cc2cnc3c(C(F)(F)F)cc(-c4ccc(C(F)(F)F)cc4)cn23)cc1", "note": "[Example 203, 4-[8-Trifluoromethyl-6-(4-trifluoromethyl-phenyl)-imidazo[1,2-a]pyridin-3-ylethynyl]-benzamide]", "values": [
      {"measurement": "melting point", "result": 286, "unit": "°C"}
    ]}
  ]
}
